≈ marks a conversion by molar mass, not a printed value.
Experiments:
[1] = system: human leukemic cell line U937; experiment: Mitochondrial transmembrane potential (DiOC6(3), flow cytometry); assay type: cell-based; conditions: 16 hours
Description: Mitochondrial pathway is one of the pathways of apoptosis induction. In cells undergoing apoptosis, mitochondria were stimulated to regulate the Bcl-2 family of proteins, which made the inner and outer mitochondrial membrane unstable. Apoptigenic factors were further released to induce apoptosis. The apoptotic mechanism of dehydrosulphurenic acid in tumor cells was studied in this experiment by measuring the mitochondrial transmembrane potential.
Dehydrosulphurenic acid in the concentration of 5 μg/ml were used to treat human leukemic cell line U937 for 16 hours; while U937 cells treated with 4 μM anti-cancer drug Camptothecin for 16 hours were served as positive control, and cells without treatment were served as negative control. These cells were washed with PBS and incubated with 40 nM 3,3′-dihexyloxacarbocyanine (DiOC6(3), Molecular Probes, Eugene, Oreg.) in the dark at 37° C. for 15 min, and were detected by flowcytometry. Excitation and emission wavelength settings of 488 nm and 530 nm were used to detect the density of green fluorescence to further estimate mitochondrial membrane potential.

[2] = system: human monoblastoid leukemic cell line U937; experiment: In vitro survival assay (MTT) for anti-leukemia effects; assay type: cell-based
Experimental: The NCI anti-cancer drug screen model was adopted to test the anti-cancer effect of dehydrosulphurenic acid. Dehydrosulphurenic acid was added into the culture media of human monoblastoid leukemic cell line U937 to test for tumor cell survival. This survival assay was carried out with the widely known MTT assay. American Type Culture Collection (ATCC) purchased U937 cell line is from lymphoma cells, which belongs to one of human leukemic cell lines and was classified into monoblasts during hematopoietic differentiation.
MTT assay is commonly used to determine cell proliferation, percent of viable cells, and cytotoxicity. MTT (3-[4,5-dimethylthiazol-2-yl]2,5-diphenyltetrazolium bromide) is a yellow dye, which can be absorbed by the living cells and be reduced to purplish blue formazan crystals by succinate tetrazolium reductase in mitochondria. Formazan formation can therefore be used to assess and determine the survival rate of cells.
(§1) The human leukemic cell line U937 was cultivated in RPMI media containing fetal calf serum for 24 hours and maintained in exponential growth condition. The proliferated cells were treated with dehydrosulphurenic acid in the concentration of 0 (the control group), 1.25, 2.5, 5, and 10 μg/ml (the experimental group), respectively. The cells were incubated at 37° C. in a 5% CO2 incubator for 24-72 hours. MTT was added in a concentration of 500 μg/ml into each well in dark and incubated for 4 hours, followed by the addition of 500 μl of isopropanol to stop the reaction. The plates were read on an ELISA reader at wavelength of 570 nm to determine the survival rates. The results were reported as the average±(plus/minus) SEM (Standard Error in the Mean). For statistical analysis, the t-test were used to compare the difference between each experiment result. P<0.05 was considered statistically significant.

[3] = system: human leukemic cell line U937; experiment: Cell morphology analysis (Liu's staining); assay type: cell-based; conditions: treatment for 24-72 h
Experimental: (§2) The human leukemic cell line U937 and the human pancreatic cancer cell line BxPc-3 were treated respectively with dehydrosulphurenic acid for 24-72 h and stained with Liu's staining solution. The morphological changes of cells with (the experimental group) or without dehydrosulphurenic acid treatment (the control group) were observed under inverted phase-contrast microscope and shown in FIG. 5 and FIG. 6.

[4] = system: human pancreatic cancer cell line BxPc-3; experiment: Cell morphology analysis (Liu's staining); assay type: cell-based; conditions: 10 μg/ml
Experimental: as §2

[5] = system: apoptosis- and mitotic catastrophe-related proteins in U937 cells; experiment: Western blot analysis of apoptosis-related proteins; assay type: cell-based, human; conditions: 5 μg/ml; 0.5-16 hours
Description: Death receptor pathway is a signal transduction pathway of apoptosis induction. Some of the death factors, such as TNF-α and so on, bind with death receptor (DR) such as TNF family in the membrane to send death signal to cells and induce a series of apoptotic events. A family of aspartic acid-specific proteases, known as caspases, includes caspase-3 and caspase-8 would be activated during apoptotic process. Activated caspase can cleave downstream protein such as Poly(ADP-ribose) polymerase (PARP) to proceed through apoptosis. This experiment investigated the implication of the death receptor pathway in dehydrosulphurenic acid-induced apoptosis through Western blot analysis.
Dehydrosulphurenic acid in the concentration of 5 μg/ml were used to treat human leukemic cell line U937 for 0.5, 1, 2, 4, and 16 hours; while U937 cells treated with 4 μM anti-cancer drug Camptothecin for 16 hours were served as positive control, and cells without treatment were served as negative control. All the proteins from the cells were extracted with bicinchoninic acid (BCA) assay kit (Pierce, Rockford, Ill.). Equal amounts ([…]) of the protein were aliquoted and separated by electrophoresis on a 10% SDS-PAGE gel at a constant current of 20 mA and 70-100 volts. The proteins on the gel were transferred onto PVDF membranes, blocked with 5% non-fat milk, and incubated respectively with human-specific antibodies including: anti-Bcl-2, anti-Bax, anti-caspase 3, anti-caspase 8, anti-Cyclin B1, anti-p-Chk2 and anti-Actin (all were purchased from Transduction Laboratories, Lexington, Ky., USA) for 3 hours at room temperature. Secondary antibody horseradish peroxidase (purchased from Transduction Laboratories, Lexington, Ky., USA) was then added and the signals were detected under an Enhanced chemiluminescence system (ECS, Amersham Pharmacia, Piscataway, N.J.).

[6] = system: human leukemic cell line U937; experiment: Cell cycle analysis by flow cytometer (propidium iodide); assay type: cell-based
Experimental: (§3) Flow cytometer was used to analyze the cell proliferation effect of dehydrosulphurenic acid toward human leukemic cell line U937 and human pancreatic cancer cell line BxPc-3.
(§4) Dehydrosulphurenic acid in the concentration of 1.25, 2.5, 5, and 10 μg/ml were used to treat human leukemic cell line U937 and the concentration of 5 and 10 μg/ml were used to treat human pancreatic cancer cell line BxPc-3; cells without addition of dehydrosulphurenic acid were served as the control group. The treated cells were fixed at […] with 70% ethanol for 1 hour and stained for 30 min with propidium iodide solution (propidium iodide, 0.5 mg/ml; RNAse, 0.1 mg/ml) contained in a CycleTEST PLUS DNA reagent kit (Becton Dickinson, Lincoln Park, N.J.). DNA content measurement on the collected 10^4 cells was performed on the FACS Calibur flow cytometer (Becton Dickinson, Calif., USA), and the cell cycle changes were analyzed using a ModFit software (Becton Dickinson).

[7] = system: human pancreatic cancer cell line BxPc-3; experiment: as above; assay type: cell-based; conditions: 5 and 10 μg/ml; 2 to 3 days
Experimental: as §3, §4

[8] = system: human pancreatic cancer cell line BxPc-3; experiment: In vitro survival assay (MTT) for anti-pancreatic cancer effects; assay type: cell-based
Experimental: The NCI anti-cancer drug screen model was also adopted to test the anti-cancer effect. Dehydrosulphurenic acid was added into the culture media of human pancreatic cancer cell line BxPc-3 to test for tumor cell survival. This survival assay was carried out with the abovementioned MTT assay. American Type Culture Collection (ATCC) purchased BxPc-3 cell line is from pancreatic cancer cells, which was originated from the epithelium of human pancreatic adenocarcinomas.
as §1, with “pancreatic cancer” for “leukemic”, “BxPc-3” for “U937”, “DMEM” for “RPMI”, “containing 100 IU/ml penicillin (Invitrogen, Carlsbad, Calif.), 100 IU/ml Streptomycin (Invitrogen, Carlsbad, Calif.), 2 mM glutamin (Invitrogen, Carlsbad, Calif.), 100 IU/ml penicillin (Invitrogen, Carlsbad, Calif.) and 10%” for “containing”, “(Atlanta Biologicals, Norcross, Ga.).” for “for 24 hours and maintained in exponential growth condition.”, “5” for “1.25, 2.5, 5,”

[9] = system: human leukemic cell line U937; experiment: Nuclear DNA changes, DNA ladder by DNA electrophoresis; assay type: cell-based; conditions: 5 μg/ml; 24, 48, and 72 hours
Experimental: (§5) Besides the abovementioned morphological changes, biochemical changes of the dying cell during apoptosis include chromatin condensation, cell shrinkage and breaking into apoptotic bodies, internucleosomal DNA fragmentation into a multiple DNA ladder during the late stage of apoptosis (can be shown in DNA electrophoresis) and so on. To further define the effects of dehydrosulphurenic acid on U937 and BxPc-3 during apoptotic stages, DNA ladders were determined using DNA electrophoresis at the present experiment.
(§6) Dehydrosulphurenic acid in the concentration of 5 μg/ml were used to treat human leukemic cell line U937 and human pancreatic cancer cell line BxPc-3 for 24, 48, and 72 hours; while U937 cells treated with 4 μM anti-cancer drug Camptothecin for 24 hours were served as positive control. Then these cells were lyzed with 0.5 ml of lysis buffer (5 mM Tris-borate (TBE), pH8.0; 0.25 ml Nonidet P-40; 1 mM EDTA; 20 μg/ml RNase (Sigma, St. Louis, Mo.)) at 37° C. for 1 hour, followed by treating with 300 μg/ml proteinase K for 1 hour. Total DNAs were extracted and analyzed by 1.5% agarose gel electrophoresis in TBE buffer (5 mM TBE buffer containing 1 μM EDTA, pH 8.0).

[10] = system: human pancreatic cancer cell line BxPc-3; experiment: as above; assay type: cell-based; conditions: 5 μg/ml; 24, 48, and 72 hours; data not shown
Experimental: as §5, §6

[11] = concentration groups of 5 and 10 μg/ml, third day of experiment

Question: With `CC[C@@]1(O)C(=O)OCc2c1cc1n(c2=O)Cc2cc3ccccc3nc2-1` [Camptothecin, reference compound] as the molecule, how does the “decrease of mitochondrial transmembrane potential” value ([1]; 4 μM camptothecin (positive control)) read?
Answer: The value was 37.1%.

Question: What does the source list for `C=C(CC[C@@H](C(=O)O)C1C[C@H](O)[C@@]2(C)C3=CCC4C(C)(C)[C@@H](O)CC[C@]4(C)C3=CC[C@]12C)C(C)C` (stereo partly drawn) [dehydrosulphurenic acid, 24-methylenelanosta-7,9(11)-diene-3β,15α-diol-21-oic acid]?
Answer: inhibitory rate ([2]; 1.25, 2.5, 5, and 10 μg/ml (all groups), third day of experiment): more than 60%; growth inhibition of U937 cells ([2]; 1.25, 2.5, 5, and 10 μg/ml, first day of experiment): inhibit the growth of U937 cells effectively; IC50 ([2]; Homo sapiens, U-937, MTT, data not shown, read-out: IC50 toward U937 cells): ~2 µg/mL (≈ 4.13 µM); inhibitory rate [2, 11]: more than 95%; highest inhibitory rate ([2]; third day of experiment): 98.9%; morphological change [3]: induced to undergo apoptosis and mitotic catastrophe; morphological change ([4]; after 2 days of treatment): typical cell apoptosis was observed; morphological change ([4]; treatment for one day): balloon-shaped cells were presented; Bax expression [5]: not changed; Bcl-2 expression [5]: slightly increased; cleavage of PARP [5]: no cleavage; cyclin B1 expression [5]: up-regulated; expression of caspase-3 [5]: not altered; expression of caspase-8 [5]: not altered; phosphorylation of Chk2 [5]: augmented; decrease of mitochondrial transmembrane potential ([1]; 5 μg/ml): no significant decrease; cell cycle arrest ([6]; 1.25-10 μg/ml, first day of experiment): remarkable G2/M phase arrest; sub-G1 population ([6]; higher concentration or second/third day of experiment): accumulating at sub-G1 population; percentage of cells with polyploidy ([6]; with increasing concentration): accompanied by increasing concentration; cell cycle arrest [7]: remarkable G0/G1 phase arrest; percentage of polyploidy cells [7]: not changed; sub-G1 population [7]: increase of cell cycle arrest at sub-G1 population; growth inhibition of BxPc-3 cells ([8]; 5 and 10 μg/ml, 24-72 hours): significantly inhibit the growth of BxPc-3 cells; IC50 ([8]; Homo sapiens, BXPC-3, MTT, data not shown, read-out: IC50 toward BxPc-3 cells): ~5 µM; inhibitory rate [8, 11]: more than 60%; highest inhibitory rate ([8]; third day of experiment): 82.5%; DNA ladder [9]: obvious DNA ladders; DNA ladder [10]: no DNA ladder

From patent publication US7994158B2, “Method for inhibiting tumor growth with dehydrosulphurenic acid extracted from Antrodia cinnamomea” (priority 2008, dated 2011)
